How the values were obtained:
JMJD2C = JMJD2C (Homo sapiens (Human), UniProt Q9H3R0); experiment: In vitro enzyme inhibition assay for JMJD2C activity (TR-FRET); format: biochemical
Outline: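 Demethylation product H3K9me2 quantified by TR-FRET ratio 665/615 after EDTA stop and 1 h with Eu-anti-H3K9me2 and streptavidin-APC; IC50 by curve fit. Reaction: 0.3 nM JMJD2C (AA 2-372, baculovirus), 2 μM α-ketoglutarate, 300 nM biotin-H3K9me3 peptide, pH 7.3 HEPES with Fe(II)/ascorbate, 30 min room temperature.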

JMJD3 = JMJD3 (Homo sapiens, UniProt O15054); experiment: In vitro enzyme inhibition assay for JMJD3 activity (TR-FRET); format: biochemical
Method: This assay determines the ability of a test compound to inhibit JMJD3 demethylase activity.
The enzymatic assay of JMJD3 activity is based upon Time Resolved-Fluorescence Resonance Energy Transfer (TR-FRET) detection. […] Reaction product was determined quantitatively by TR-FRET after the addition of detection reagent Phycolink Streptavidin-allophycocyanin (Prozyme) and Europium-anti-di-methylated histone H3 lysine 27 (H3K27me2) antibody (PerkinElmer) in the presence of 5 mM EDTA in LANCE detection buffer (PerkinElmer) at a final concentration of 50 nM and 1 nM, respectively.
The reaction mixture was incubated at room temperature for 30 minutes, and terminated by the addition of 6 μL of 5 mM EDTA in LANCE detection buffer containing 100 nM Phycolink Streptavidin-allophycocyanin and 2 nM Europium-anti-H3K27me2 antibody.

[1] = system: KYSE-150 esophageal carcinoma cell line; experiment: In vitro cell-based assay: cellular proliferation via BrdU incorporation (ELISA); design: species or system human; conditions: Homo sapiens, KYSE-150, 168 hours compound incubation
Outline: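 BrdU incorporation during S-phase, detected colorimetrically at 450 nm by peroxidase ELISA, measured proliferation after 168 h compound exposure.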

Chain of JMJD2C (Q9H3R0 2-372): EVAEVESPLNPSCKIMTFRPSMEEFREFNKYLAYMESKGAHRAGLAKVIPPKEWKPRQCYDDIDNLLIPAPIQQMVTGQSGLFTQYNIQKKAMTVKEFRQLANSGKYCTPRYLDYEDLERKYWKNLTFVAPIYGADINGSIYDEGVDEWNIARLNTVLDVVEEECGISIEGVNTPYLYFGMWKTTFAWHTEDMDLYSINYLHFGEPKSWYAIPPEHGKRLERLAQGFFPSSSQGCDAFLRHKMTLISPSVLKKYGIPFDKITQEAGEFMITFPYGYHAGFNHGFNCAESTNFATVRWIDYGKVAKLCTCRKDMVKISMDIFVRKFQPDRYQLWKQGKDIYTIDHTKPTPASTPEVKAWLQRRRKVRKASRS

IC50 (JMJD2C) [nM]	IC50 (JMJD3) [nM]	IC50 [1] [nM]	Structure (SMILES)
100 to 1000	1000 to 10000	≤ 100	CN(c1ccc(Cl)cc1)c1ccc2c(c1)OCC[C@H]2CNc1cnccc1C(=O)O [Example 23, 3-({[(4R)-7-[(4-chlorophenyl)(methyl)amino]-3,4-dihydro-2H-1-benzopyran-4-yl]methyl}amino)pyridine-4-carboxylic acid]
100 to 1000	1000 to 10000	≤ 100	CCN(c1ccccc1)c1ccc2c(c1)OCC[C@H]2CNc1cnccc1C(=O)O [Example 24, 3-({[(4R)-7-[ethyl(phenyl)amino]-3,4-dihydro-2H-1-benzopyran-4-yl]methyl}amino)pyridine-4-carboxylic acid]
100 to 1000	1000 to 10000	1000 to 10000	CN(c1ccccc1)c1ccc2c(n1)CCCC2CNc1cnccc1C(=O)O (stereo not drawn) [Example 26, 3-[({2-[methyl(phenyl)amino]-5,6,7,8-tetrahydroquinolin-5-yl}methyl)amino]pyridine-4-carboxylic acid]
100 to 1000	< 100	1000 to 10000	O=C(O)c1ccncc1NCC1CCOc2cc(-c3ccoc3)ccc21 (stereo not drawn) [Example 28, 3-({[7-(furan-3-yl)-3,4-dihydro-2H-1-benzopyran-4-yl]methyl}amino)pyridine-4-carboxylic acid]
100 to 1000	1000 to 10000	100 to 1000	O=C(O)c1ccncc1NC[C@@H]1CCOc2cc(-c3ccsc3)ccc21 [Example 34, 3-({[(4R)-7-(thiophen-3-yl)-3,4-dihydro-2H-1-benzopyran-4-yl]methyl}amino)pyridine-4-carboxylic acid]
1000 to 10000	1000 to 10000	100 to 1000	Cc1sccc1-c1ccc2c(c1)OCC[C@H]2CNc1cnccc1C(=O)O [Example 37, 3-({[(4R)-7-(2-methylthiophen-3-yl)-3,4-dihydro-2H-1-benzopyran-4-yl]methyl}amino)pyridine-4-carboxylic acid]
100 to 1000	1000 to 10000	≤ 100	O=C(O)c1ccncc1NC[C@@H]1CCOc2cc(-c3ccccc3Cl)ccc21 [Example 40, 3-({[(4R)-7-(2-chlorophenyl)-3,4-dihydro-2H-1-benzopyran-4-yl]methyl}amino)pyridine-4-carboxylic acid]
100 to 1000	1000 to 10000	100 to 1000	O=C(O)c1ccncc1NC[C@@H]1CCOc2cc(Sc3ccc(F)cc3)ccc21 [Example 55, 3-({[(4R)-7-[(4-fluorophenyl)sulfanyl]-3,4-dihydro-2H-1-benzopyran-4-yl]methyl}amino)pyridine-4-carboxylic acid]
100 to 1000	1000 to 10000	≤ 100	Cc1ccc(Oc2ccc3c(c2)CCC[C@H]3CNc2cnccc2C(=O)O)c(F)c1 [Example 66, 3-({[(1R)-6-(2-fluoro-4-methylphenoxy)-1,2,3,4-tetrahydronaphthalen-1-yl]methyl}amino)pyridine-4-carboxylic acid]
100 to 1000	100 to 1000	1000 to 10000	COc1ccc2c(c1C)CCC[C@H]2CNc1cnccc1C(=O)O [Example 99, 3-({[(1R)-6-methoxy-5-methyl-1,2,3,4-tetrahydronaphthalen-1-yl]methyl}amino)pyridine-4-carboxylic acid]
100 to 1000	1000 to 10000	≤ 100	Cc1ccc(N(C)c2ccc3c(c2)CCC[C@H]3CNc2cnccc2C(=O)O)nc1 [Example 122, 3-({[(1R)-6-[methyl(5-methylpyridin-2-yl)amino]-1,2,3,4-tetrahydronaphthalen-1-yl]methyl}amino)pyridine-4-carboxylic acid]
100 to 1000	1000 to 10000	≤ 100	Cc1cccc(N(C)c2ccc3c(c2)CCC[C@H]3CNc2cnccc2C(=O)O)n1 [Example 123, 3-({[(1R)-6-[methyl(6-methylpyridin-2-yl)amino]-1,2,3,4-tetrahydronaphthalen-1-yl]methyl}amino)pyridine-4-carboxylic acid]
100 to 1000	1000 to 10000	100 to 1000	C#Cc1ccc(N(C)c2ccc3c(c2)OCC[C@H]3CNc2cnccc2C(=O)O)cc1 [Example 126, 3-({[(4R)-7-[(4-ethynylphenyl)(methyl)amino]-3,4-dihydro-2H-1-benzopyran-4-yl]methyl}amino)pyridine-4-carboxylic acid]
100 to 1000	1000 to 10000	≤ 100	CN(c1ccc(C2CC2)cc1)c1ccc2c(c1)OCC[C@H]2CNc1cnccc1C(=O)O [Example 134, 3-({[(4R)-7-[(4-cyclopropylphenyl)(methyl)amino]-3,4-dihydro-2H-1-benzopyran-4-yl]methyl}amino)pyridine-4-carboxylic acid]
100 to 1000	1000 to 10000	≤ 100	Cc1ccc(N(C)c2ccc3c(c2)CCC[C@H]3CNc2cnccc2C(=O)O)cc1 [Example 140, 3-({[(1R)-6-[methyl(4-methylphenyl)amino]-1,2,3,4-tetrahydronaphthalen-1-yl]methyl}amino)pyridine-4-carboxylic acid]
≤ 100	1000 to 10000	≤ 100	Cc1ccc(N(C)c2ccc3c(c2)OCC[C@H]3CNc2cnccc2C(=O)O)nc1 [Example 145, 3-({[(4R)-7-[methyl(5-methylpyridin-2-yl)amino]-3,4-dihydro-2H-1-benzopyran-4-yl]methyl}amino)pyridine-4-carboxylic acid]
100 to 1000	1000 to 10000	≤ 100	CN(c1ccc2c(c1)OCC[C@H]2CNc1cnccc1C(=O)O)c1ccc(C2CC2)cn1 [Example 153, 3-({[(4R)-7-[(5-cyclopropylpyridin-2-yl)(methyl)amino]-3,4-dihydro-2H-1-benzopyran-4-yl]methyl}amino)pyridine-4-carboxylic acid]
100 to 1000	1000 to 10000	≤ 100	CCc1ccc(N(C)c2ccc3c(c2)OCC[C@H]3CNc2cnccc2C(=O)O)cc1 [Example 154, 3-({[(4R)-7-[(4-ethylphenyl)(methyl)amino]-3,4-dihydro-2H-1-benzopyran-4-yl]methyl}amino)pyridine-4-carboxylic acid]
100 to 1000	1000 to 10000	100 to 1000	Cc1cnc(N(C)c2ccc3c(c2)CCC[C@H]3CNc2cnccc2C(=O)O)nc1 [Example 156, 3-({[(1R)-6-[methyl(5-methylpyrimidin-2-yl)amino]-1,2,3,4-tetrahydronaphthalen-1-yl]methyl}amino)pyridine-4-carboxylic acid]
100 to 1000	1000 to 10000	≤ 100	CCc1ccc(N(C)c2ccc3c(c2)OCC[C@H]3CNc2cnccc2C(=O)O)nc1 [Example 157, 3-({[(4R)-7-[(5-ethylpyridin-2-yl)(methyl)amino]-3,4-dihydro-2H-1-benzopyran-4-yl]methyl}amino)pyridine-4-carboxylic acid]
100 to 1000	1000 to 10000	1000 to 10000	CN(c1ccc2c(c1)CCC[C@H]2CNc1cnccc1C(=O)O)c1cnn(C)c1 [Example 159, 3-({[(1R)-6-[methyl(1-methyl-1H-pyrazol-4-yl)amino]-1,2,3,4-tetrahydronaphthalen-1-yl]methyl}amino)pyridine-4-carboxylic acid]

Structure (SMILES)	IC50 (JMJD2C) [nM]	IC50 (JMJD3) [nM]	IC50 [1] [nM]
O=C(O)c1ccncc1NCC1CCCc2nc(-c3ccccc3)ccc21 (stereo not drawn) [Example 25]	100 to 1000	100 to 1000	> 10000
